Reference: the NIST ThermoML archive (doi:10.1021/je049762q)
Numbers after ± are expanded uncertainties.

Key:
[1] = Molar enthalpy of transition or fusion

Row | SMILES | Triple point temperature (Crystal) | Molar enthalpy of transition or fusion ([1]; Crystal) | Triple point temperature (Crystal 1) | Triple point temperature (Crystal 2) | Triple point temperature (Crystal 3) | Molar enthalpy of transition or fusion ([1]; Crystal 1) | Molar enthalpy of transition or fusion ([1]; Crystal 2) | Molar enthalpy of transition or fusion ([1]; Crystal 3)
1 | Clc1cc(Cl)cc(Cl)c1 [1,3,5-trichlorobenzene] | 335.92 ± 0.09 K | 4.196 ± 0.0215 kcal/mol |  |  |  |  |  | 
2 | Clc1ccc(Cl)cc1 [1,4-dichlorobenzene] |  |  | 326.24 ± 0.09 K | 306 ± 2 K | 275 ± 0.4 K | 4.28 ± 0.0153 kcal/mol | 0.0433 ± 0.0122 kcal/mol | 0.296 ± 0.0122 kcal/mol
3 | Brc1ccc(Br)cc1 [1,4-dibromobenzene] | 360.48 ± 0.09 K | 4.873 ± 0.0158 kcal/mol |  |  |  |  |  | 
4 | Brc1cc(Br)cc(Br)c1 [1,3,5-tribromobenzene] | 394.96 ± 0.16 K | 5.191 ± 0.0122 kcal/mol |  |  |  |  |  | 
